Holding throughout (assay): NCI tumour cell line growth inhibition, 48 h
Assay [1] has as its system HT29 colon.
Assay [2] relates to KM12 colon.
In assay [3] the test system is MDA-MB-231 breast.
In assay [4] the test system is OVCAR-4 ovarian.
Assay [5] deals with MOLT-4 leukemia.
Assay [6] deals with U251 CNS.
In assay [7] the test system is OVCAR-3 ovarian.
Assay [8] has as its system HOP-62 NSCLC.
Assay [9] concerns HCT-116 colon.
Assay [10] concerns M14 melanoma.

The results in this text go back to PubChem BioAssay (NCI).

Structures are written as SMILES.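 Following 48 hours of exposure in 96-well plates, responses at five concentrations were used to interpolate endpoints linearly. At the GI50, growth is halved. TGI denotes the concentration required for complete inhibition of growth.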

Take `Cc1c2c(C(N)=O)nccc2c(C)c2c1c1ccccc1n2Cc1ccccc1`: the TGI in assay [1] was found to be 37.1 µM; in [2] it was 72.6 µM; in [3] it was 28 µM; in assay [4], 7.47 µM; in assay [5], 62.9 µM; in [6], 24.9 µM. Also, the TGI in assay [7] was 21.1 µM; in assay [8], 19.3 µM; in assay [9] it was 29 µM; in assay [10], > 100 µM.
In the case of `O=C(NNc1cnccn1)c1nc2cc(F)ccc2n2cccc12`, the GI50 was 0.649 µM in [1]; 0.509 µM in [2]; 0.597 µM in assay [3]; 0.211 µM in [4]; 0.34 µM in assay [5]; 0.363 µM in [6]. The GI50 in assay [7] was 0.311 µM; in [8], 0.364 µM; in assay [9] it was 0.46 µM; in assay [10], 0.34 µM. Moreover, the TGI in assay [1] is > 100 µM; in assay [2], > 100 µM; in [3], > 100 µM; in [4] it was 0.964 µM; in assay [5], > 100 µM; in [6], > 100 µM. For the same compound, the TGI in [7] is > 100 µM; in [8], > 100 µM; in assay [9] it was > 100 µM; in assay [10] it was 14.5 µM.
Take `COc1ccc(-c2nn(-c3cccc(Cl)c3)cc2-c2nc(N)[nH]c(=O)c2C#N)cc1`: the GI50 in assay [1] is 4.29 µM; in [2] it was 3.84 µM; in assay [3], 3.39 µM; in [4], 7.71 µM; in assay [5] it was 4.8 µM; in [6], 3.66 µM. In addition, the GI50 was 3.38 µM in assay [7], 10.1 µM in [8], 4.35 µM in [9] and 3.25 µM in assay [10]. Moreover, the TGI in assay [1] was found to be 20 µM; in assay [2], 15.2 µM; in [3], 53.3 µM; in [4], 61.9 µM; in [5], 39.8 µM; in [6], 18.8 µM. Moreover, the TGI was found to be 10 µM in assay [7], 26.2 µM in assay [8], 16.2 µM in assay [9] and 34 µM in assay [10].
In the case of `C=CCn1c(SCC(=O)Nc2ccc(C(=O)/C=C/c3cc(OC)c(OC)c(OC)c3)cc2)nnc1-c1ccc(OC)cc1`, the GI50 in assay [1] is 0.237 µM; in assay [2], 0.315 µM; in assay [3], 0.888 µM; in assay [4], 0.783 µM; in [5], 0.378 µM; in assay [6] it was 0.289 µM. Besides, the GI50 in assay [7] is 0.343 µM; in assay [8] it was 0.691 µM; in assay [9], 0.223 µM; in [10] it was 0.404 µM. For the same compound, the TGI in assay [1] is 0.532 µM; in assay [2], 1.5 µM; in [3], 29.9 µM; in [4], 10.5 µM; in [5], > 100 µM; in assay [6], 0.939 µM. Besides, the TGI came out at 1.02 µM in assay [7], 1.75 µM in [8], 0.52 µM in assay [9] and 2.58 µM in assay [10].
Turning to `COc1ccc(-c2noc(N)c2-c2cc(OC)c3c(c2)OCO3)cc1`, the GI50 in [1] is 1.39 µM; in [2], 1.97 µM; in [3], 2.76 µM; in assay [4], 24.3 µM; in [5], 1.98 µM; in assay [6] it was 3.7 µM. Besides, the GI50 is 2.53 µM in [7], 3.19 µM in assay [8], 2.4 µM in [9] and 1.3 µM in [10]. For the same compound, the TGI in assay [1] is > 35.5 µM; in assay [2], > 100 µM; in [3], 60.9 µM; in [4], > 100 µM; in [5] it was > 64.1 µM; in assay [6], > 100 µM. For the same compound, the TGI is 12.9 µM in assay [7], > 100 µM in assay [8], > 48.3 µM in assay [9] and 7.02 µM in [10].
As to `c1ccc2c(c1)c1ccccc1c1ccccc21`, the GI50 is > 100 µM in [1]; > 100 µM in assay [2]; 87.2 µM in assay [3]; > 100 µM in [4]; 77.3 µM in assay [5]; > 100 µM in [6]. The GI50 in [7], in [8], in assay [9] and in assay [10] was > 100 µM each time. For the same compound, the TGI in assay [1], in [2], in [3], in [4], in [5] and in [6] was > 100 µM in each case. Also, the TGI in [7], in assay [8], in [9] and in assay [10] was > 100 µM throughout.
For the compound `COc1ccc(-c2ccc(NNC(=O)c3ccc(F)cc3)nn2)cc1OC`, the GI50 was > 100 µM in [1]; > 100 µM in assay [2]; 93 µM in assay [3]; 55.3 µM in [4]; 40.6 µM in assay [5]; > 100 µM in [6]. Also, the GI50 in assay [7] is 79.7 µM; in assay [8] it was 91.7 µM; in [9], > 100 µM; in assay [10] it was > 100 µM. The TGI in assay [1], in [2], in assay [3], in assay [4], in assay [5] and in assay [6] was > 100 µM each time. The TGI in assay [7], in assay [8], in [9] and in assay [10] was > 100 µM throughout.
With `Oc1ccc(/C=C/c2cc(O)cc3c2C(c2cc(O)cc(O)c2)C(c2ccc(O)c(O)c2)O3)cc1` (stereo not given), the TGI was 47.6 µM in assay [1]; 87.4 µM in assay [2]; 68 µM in assay [3]; 41.2 µM in assay [4]; 33.5 µM in assay [5]; > 100 µM in assay [6]. Moreover, the TGI in [7] is 56.4 µM; in assay [8], > 100 µM; in [9] it was > 100 µM; in assay [10], > 100 µM.
